Experimental data as given in patent US7115596B2, “Thiazole compounds as integrin receptor antagonists derivatives” (Pharmacia Corporation, priority 2002, dated 2006).
Counter-ions that a name gives are not always drawn.

Assay: Plasma level upon oral dosing (AUC-PO) in rat
Assay type: in vivo
Details: per dose, Table 1
For `O=C(O)CC(Cc1csc(CCCc2ccc3c(n2)NCCC3)n1)c1ccc2c(c1)OCO2` (stereo not drawn) [drawing 98], the “Rat AUC/Dose” value was 6.81 ug-/m/L/mg/Kg. In the case of `O=C(O)C[C@H](Cc1csc(CCCCNc2cc(N3CCOCC3)ccn2)n1)c1ccc2c(c1)OCO2`, the “Rat AUC/Dose” value is reported as 0.0634 ug-/m/L/mg/Kg.

Same assay, conditions: per dose, second table
For `O=C(O)C[C@H](Cc1csc(CCCc2ccc3c(n2)NCCC3)n1)c1ccc2c(c1)OCO2` [Example 7, (3S)-3-(1,3-benzodioxol-5-yl)-4-{2-[3-(5,6,7,8-tetrahydro-1,8-naphthyridin-2-yl)propyl]-1,3-thiazol-4-yl}butanoic acid hydrochloride], the “Rat PK-AUC/dose” value was 8.7 ug-h/m/L/mg/Kg. For `O=C(O)CC(Cc1csc(CCCc2ccc3c(n2)NCCC3)n1)c1ccc2c(c1)OCO2` (stereo not drawn) [Example 6, 3-(1,3-benzodioxol-5-yl)-4-{2-[3-(5,6,7,8-tetrahydro-1,8-naphthyridin-2-yl)propyl]-1,3-thiazol-4-yl}butanoic acid hydrochloride], the “Rat PK-AUC/dose” value was 6.8 ug-h/m/L/mg/Kg. With `O=C(O)CC(Cc1csc(CCCc2ccc3c(n2)NCCC3)n1)c1cnc(C2CC2)s1` (stereo not drawn) [Example 16, 3-(2-Cyclopropyl-1,3-thiazol-5-yl)-4-{2-[3-(5,6,7,8-tetrahydro-1,8-naphthyridin-2-yl)propyl]-1,3-thiazol-4-yl}butanoic acid hydrochloride] the “Rat PK-AUC/dose” value was 1.7 ug-h/m/L/mg/Kg. For `Cc1nc2cc(C(CC(=O)O)Cc3csc(CCCc4ccc5c(n4)NCCC5)n3)ccc2s1` (stereo not drawn) [Example 9, 3-(2-methyl-1,3-benzothiazol-5-yl)-4-{2-[3-(5,6,7,8-tetrahydro-1,8-naphthyridin-2-yl)propyl]-1,3-thiazol-4-yl}butanoic acid hydrochloride], the “Rat PK-AUC/dose” value was 2.5 ug-h/m/L/mg/Kg. In the case of `COc1cc(OC)cc(C(CC(=O)O)Cc2csc(CCCc3ccc4c(n3)NCCC4)n2)c1` (stereo not drawn) [Example 5, 3-(3,5-dimethoxyphenyl)-4-{2-[3-(5,6,7,8-tetrahydro-1,8-naphthyridin-2-yl)propyl]-1,3-thiazol-4-yl}butanoic acid hydrochloride], the “Rat PK-AUC/dose” value is reported as 2.2 ug-h/m/L/mg/Kg. For `COc1ccc(C(CC(=O)O)Cc2csc(CCCc3ccc4c(n3)NCCC4)n2)cc1F` (stereo not drawn) [Example 2, 3-(3-fluoro-4-methoxyphenyl)-4-{2-[3-(5,6,7,8-tetrahydro-1,8-naphthyridin-2-yl)propyl]-1,3-thiazol-4-yl}butanoic acid hydrochloride], the “Rat PK-AUC/dose” value was 1.8 ug-h/m/L/mg/Kg. With `COc1ccc(C(CC(=O)O)Cc2csc(CCCc3ccc4c(n3)NCCC4)n2)cn1` (stereo not drawn) [Example 13, 3-(6-Methoxypyridin-3-yl)-4-{2-[3-(5,6,7,8-tetrahydro-1,8-naphthyridin-2-yl)propyl]-1,3-thiazol-4-yl}butanoic acid hydrochloride] the “Rat PK-AUC/dose” value was 1.6 ug-h/m/L/mg/Kg.
